Reference: the NIST ThermoML archive (doi:10.1021/acs.jced.7b00023)
± gives the expanded uncertainty stated by the source.

Tests used:
[1] = wn = mass fraction of the nth substance listed; details: 101.3 kPa, Liquid, Vibrating tube method
[2] = refractive index (Na D-line) (dimensionless); wn = mass fraction of the nth substance listed; details: 101.3 kPa, Liquid, Standard Abbe refractometry

mass density ([1]; 298.15 K, w1 = 0.6538) [kg/m3] | mass density ([1]; 308.15 K, w1 = 0.6693) [kg/m3] | mass density ([1]; 318.15 K, w1 = 0.6788) [kg/m3] | refractive index ([2]; 298.15 K, w1 = 0.6538) | refractive index ([2]; 308.15 K, w1 = 0.6693) | refractive index ([2]; 318.15 K, w1 = 0.6788) | mass density ([1]; 298.15 K, w1 = 0.263) [kg/m3] | mass density ([1]; 308.15 K, w1 = 0.2666) [kg/m3] | mass density ([1]; 318.15 K, w1 = 0.2669) [kg/m3] | refractive index ([2]; 298.15 K, w1 = 0.263) | refractive index ([2]; 308.15 K, w1 = 0.2666) | refractive index ([2]; 318.15 K, w1 = 0.2669) | SMILES
1923.9 ± 3.6 | 1946.1 ± 3.6 | 1980.8 ± 3.7 | 1.4196 ± 0.002 | 1.4204 ± 0.002 | 1.4218 ± 0.002 |  |  |  |  |  |  | [Cl-].[Cs+] [cesium chloride] + O
 |  |  |  |  |  | 1197.8 ± 3.1 | 1193.6 ± 3.1 | 1188.9 ± 3.1 | 1.3796 ± 0.002 | 1.3781 ± 0.002 | 1.3766 ± 0.002 | [Cl-].[Na+] [sodium chloride] + O
